Legend:
Experiment in all cases: radiometric filter-binding kinase assay
CSNK1G2 (human) = CSNK1G2 (human) (UniProt P78368)
STK24 (human) = STK24 (human) (UniProt Q9Y6E0)
TTBK1 (human) = TTBK1 (human) (UniProt Q5TCY1)
ULK1 (human) = ULK1 (human) (UniProt O75385)
TSSK1B (human) = TSSK1B (human) (UniProt Q9BXA7)
SIK3 (human) = SIK3 (human) (UniProt Q9Y2K2)
STK33 (human) = STK33 (human) (UniProt Q9BYT3)
EIF2AK3 (human) = EIF2AK3 (human) (UniProt Q9NZJ5)
ULK2 (human) = ULK2 (human) (UniProt Q8IYT8)
DDR2 (human) = DDR2 (human) (UniProt Q16832)
TTBK2 (human) = TTBK2 (human) (UniProt Q6IQ55)
TEK (human) = TEK (human) (UniProt Q02763)
GSK3B (human) = GSK3B (human) (UniProt P49841)
SIK2 (human) = SIK2 (human) (UniProt Q9H0K1)
TLK1 (human) = TLK1 (human) (UniProt Q9UKI8)
CDK9 CCNT1 (human) = CDK9 CCNT1 (human) (UniProt P50750+O60563)
MAPK7 (human) = MAPK7 (human) (UniProt Q13164)
[1] = test system: TGFBR1 (human), P36897 [T204D]
IRAK1 (human) = IRAK1 (human) (UniProt P51617)
TESK1 (human) = TESK1 (human) (UniProt Q15569)
PDGFRA (human) = PDGFRA (human) (UniProt P16234)
MAP4K3 (human) = MAP4K3 (human) (UniProt Q8IVH8)
ZAP70 (human) = ZAP70 (human) (UniProt P43403)
[2] = test system: OXSR1 (human), O95747 [T185E]
SRPK1 (human) = SRPK1 (human) (UniProt Q96SB4)
PTK6 (human) = PTK6 (human) (UniProt Q13882)
[3] = target: PRKAA1 PRKAB2 PRKAG1 (human) (UniProt O43741+Q13131+P54619)
STK16 (human) = STK16 (human) (UniProt O75716)
WNK1 (human) = WNK1 (human) (UniProt Q9H4A3)
MAP4K5 (human) = MAP4K5 (human) (UniProt Q9Y4K4)
ABL1 (human) = ABL1 (human) (UniProt P00519)

Sequence of TEK (human) (Q02763 whole entry, looked up): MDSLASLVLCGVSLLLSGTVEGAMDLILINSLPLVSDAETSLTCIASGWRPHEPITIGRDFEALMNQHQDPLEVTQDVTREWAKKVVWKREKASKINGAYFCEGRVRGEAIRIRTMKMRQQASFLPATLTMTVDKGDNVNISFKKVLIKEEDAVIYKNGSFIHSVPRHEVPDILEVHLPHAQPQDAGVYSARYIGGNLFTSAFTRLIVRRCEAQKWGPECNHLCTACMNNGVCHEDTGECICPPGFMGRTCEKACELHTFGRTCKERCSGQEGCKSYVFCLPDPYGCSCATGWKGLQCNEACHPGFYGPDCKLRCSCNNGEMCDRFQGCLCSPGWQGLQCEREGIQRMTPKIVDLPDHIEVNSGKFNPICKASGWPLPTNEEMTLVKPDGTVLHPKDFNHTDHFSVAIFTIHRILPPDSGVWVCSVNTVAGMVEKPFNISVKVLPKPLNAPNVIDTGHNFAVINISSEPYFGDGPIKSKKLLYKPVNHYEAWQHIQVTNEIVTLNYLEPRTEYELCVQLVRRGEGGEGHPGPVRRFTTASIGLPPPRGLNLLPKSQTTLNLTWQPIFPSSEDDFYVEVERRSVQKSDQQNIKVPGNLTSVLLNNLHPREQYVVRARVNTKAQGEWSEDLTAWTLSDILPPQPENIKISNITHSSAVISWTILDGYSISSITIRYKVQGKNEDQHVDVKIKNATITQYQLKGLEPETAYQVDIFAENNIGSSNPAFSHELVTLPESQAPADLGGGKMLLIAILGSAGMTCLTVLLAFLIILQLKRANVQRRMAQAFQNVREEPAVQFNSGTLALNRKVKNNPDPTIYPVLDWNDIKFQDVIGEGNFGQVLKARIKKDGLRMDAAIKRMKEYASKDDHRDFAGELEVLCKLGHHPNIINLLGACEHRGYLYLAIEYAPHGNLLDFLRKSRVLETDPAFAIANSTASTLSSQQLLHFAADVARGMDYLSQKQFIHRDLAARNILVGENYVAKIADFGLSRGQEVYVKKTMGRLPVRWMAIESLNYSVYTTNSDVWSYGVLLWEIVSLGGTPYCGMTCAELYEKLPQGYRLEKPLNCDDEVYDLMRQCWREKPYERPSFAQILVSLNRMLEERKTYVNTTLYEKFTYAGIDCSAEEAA
Sequence of EIF2AK3 (human) (Q9NZJ5 whole entry, looked up): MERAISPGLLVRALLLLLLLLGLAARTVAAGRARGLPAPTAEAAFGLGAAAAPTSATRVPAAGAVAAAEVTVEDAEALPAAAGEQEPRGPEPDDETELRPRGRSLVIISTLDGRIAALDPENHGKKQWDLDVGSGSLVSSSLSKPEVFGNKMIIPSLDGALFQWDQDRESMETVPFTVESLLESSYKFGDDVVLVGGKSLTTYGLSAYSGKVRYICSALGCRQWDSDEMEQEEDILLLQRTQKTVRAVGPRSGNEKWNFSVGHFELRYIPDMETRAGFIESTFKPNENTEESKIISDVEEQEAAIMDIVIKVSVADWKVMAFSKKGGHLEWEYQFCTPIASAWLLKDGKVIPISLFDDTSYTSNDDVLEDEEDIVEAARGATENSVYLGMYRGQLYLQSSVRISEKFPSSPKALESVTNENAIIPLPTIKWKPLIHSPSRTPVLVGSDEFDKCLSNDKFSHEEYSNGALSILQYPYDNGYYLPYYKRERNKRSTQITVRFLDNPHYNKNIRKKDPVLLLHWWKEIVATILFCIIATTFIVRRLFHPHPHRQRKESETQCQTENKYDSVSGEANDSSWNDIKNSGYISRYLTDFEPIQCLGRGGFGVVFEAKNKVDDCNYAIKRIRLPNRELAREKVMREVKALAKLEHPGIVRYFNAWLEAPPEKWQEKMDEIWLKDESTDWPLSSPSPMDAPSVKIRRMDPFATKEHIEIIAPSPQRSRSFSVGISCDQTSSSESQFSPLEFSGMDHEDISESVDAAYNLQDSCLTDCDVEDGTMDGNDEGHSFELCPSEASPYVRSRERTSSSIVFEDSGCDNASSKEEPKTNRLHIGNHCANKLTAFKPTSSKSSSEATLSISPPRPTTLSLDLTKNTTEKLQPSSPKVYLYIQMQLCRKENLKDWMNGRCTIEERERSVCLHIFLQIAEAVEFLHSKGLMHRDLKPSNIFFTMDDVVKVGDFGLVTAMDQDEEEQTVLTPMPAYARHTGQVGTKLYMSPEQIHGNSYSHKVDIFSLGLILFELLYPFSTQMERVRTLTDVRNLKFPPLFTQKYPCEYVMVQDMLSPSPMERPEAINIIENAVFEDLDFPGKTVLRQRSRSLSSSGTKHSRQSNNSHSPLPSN
Sequence of MAP4K3 (human) (Q8IVH8 whole entry, looked up): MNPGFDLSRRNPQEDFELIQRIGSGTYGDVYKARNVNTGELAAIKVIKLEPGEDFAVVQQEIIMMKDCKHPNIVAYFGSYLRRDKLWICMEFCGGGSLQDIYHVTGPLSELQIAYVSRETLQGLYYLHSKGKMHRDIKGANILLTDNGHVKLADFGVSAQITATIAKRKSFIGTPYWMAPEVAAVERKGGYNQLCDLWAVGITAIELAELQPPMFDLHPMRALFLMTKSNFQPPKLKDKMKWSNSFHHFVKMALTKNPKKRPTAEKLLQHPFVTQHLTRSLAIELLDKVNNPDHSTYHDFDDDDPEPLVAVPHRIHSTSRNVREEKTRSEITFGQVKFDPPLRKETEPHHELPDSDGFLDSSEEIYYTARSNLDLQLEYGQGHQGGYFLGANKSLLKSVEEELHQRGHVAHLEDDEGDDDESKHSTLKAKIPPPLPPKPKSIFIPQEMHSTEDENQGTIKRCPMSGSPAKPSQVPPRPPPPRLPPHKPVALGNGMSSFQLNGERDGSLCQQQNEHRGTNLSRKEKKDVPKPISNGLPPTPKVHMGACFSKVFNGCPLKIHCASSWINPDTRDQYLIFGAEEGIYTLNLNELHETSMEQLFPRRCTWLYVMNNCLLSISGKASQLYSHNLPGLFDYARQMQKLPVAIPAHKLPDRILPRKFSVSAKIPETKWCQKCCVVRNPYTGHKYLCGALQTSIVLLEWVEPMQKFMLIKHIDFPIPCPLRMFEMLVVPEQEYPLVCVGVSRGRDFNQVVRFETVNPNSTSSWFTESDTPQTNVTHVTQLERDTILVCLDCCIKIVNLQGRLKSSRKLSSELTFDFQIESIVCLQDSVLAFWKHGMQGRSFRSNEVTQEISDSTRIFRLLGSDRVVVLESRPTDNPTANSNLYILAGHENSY
Sequence of STK24 (human) (Q9Y6E0 whole entry, looked up): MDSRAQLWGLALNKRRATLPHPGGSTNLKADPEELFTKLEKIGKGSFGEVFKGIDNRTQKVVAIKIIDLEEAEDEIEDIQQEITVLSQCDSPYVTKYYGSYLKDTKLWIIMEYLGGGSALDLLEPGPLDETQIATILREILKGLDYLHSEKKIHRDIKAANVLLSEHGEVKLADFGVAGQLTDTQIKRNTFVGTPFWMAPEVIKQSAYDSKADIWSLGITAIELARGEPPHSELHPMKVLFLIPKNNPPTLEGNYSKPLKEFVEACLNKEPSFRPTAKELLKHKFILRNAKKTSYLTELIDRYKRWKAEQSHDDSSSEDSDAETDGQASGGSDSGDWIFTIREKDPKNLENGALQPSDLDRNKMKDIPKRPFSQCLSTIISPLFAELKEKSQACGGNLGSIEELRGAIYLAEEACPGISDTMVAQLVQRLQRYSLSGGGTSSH
Sequence of ULK2 (human) (Q8IYT8 whole entry, looked up): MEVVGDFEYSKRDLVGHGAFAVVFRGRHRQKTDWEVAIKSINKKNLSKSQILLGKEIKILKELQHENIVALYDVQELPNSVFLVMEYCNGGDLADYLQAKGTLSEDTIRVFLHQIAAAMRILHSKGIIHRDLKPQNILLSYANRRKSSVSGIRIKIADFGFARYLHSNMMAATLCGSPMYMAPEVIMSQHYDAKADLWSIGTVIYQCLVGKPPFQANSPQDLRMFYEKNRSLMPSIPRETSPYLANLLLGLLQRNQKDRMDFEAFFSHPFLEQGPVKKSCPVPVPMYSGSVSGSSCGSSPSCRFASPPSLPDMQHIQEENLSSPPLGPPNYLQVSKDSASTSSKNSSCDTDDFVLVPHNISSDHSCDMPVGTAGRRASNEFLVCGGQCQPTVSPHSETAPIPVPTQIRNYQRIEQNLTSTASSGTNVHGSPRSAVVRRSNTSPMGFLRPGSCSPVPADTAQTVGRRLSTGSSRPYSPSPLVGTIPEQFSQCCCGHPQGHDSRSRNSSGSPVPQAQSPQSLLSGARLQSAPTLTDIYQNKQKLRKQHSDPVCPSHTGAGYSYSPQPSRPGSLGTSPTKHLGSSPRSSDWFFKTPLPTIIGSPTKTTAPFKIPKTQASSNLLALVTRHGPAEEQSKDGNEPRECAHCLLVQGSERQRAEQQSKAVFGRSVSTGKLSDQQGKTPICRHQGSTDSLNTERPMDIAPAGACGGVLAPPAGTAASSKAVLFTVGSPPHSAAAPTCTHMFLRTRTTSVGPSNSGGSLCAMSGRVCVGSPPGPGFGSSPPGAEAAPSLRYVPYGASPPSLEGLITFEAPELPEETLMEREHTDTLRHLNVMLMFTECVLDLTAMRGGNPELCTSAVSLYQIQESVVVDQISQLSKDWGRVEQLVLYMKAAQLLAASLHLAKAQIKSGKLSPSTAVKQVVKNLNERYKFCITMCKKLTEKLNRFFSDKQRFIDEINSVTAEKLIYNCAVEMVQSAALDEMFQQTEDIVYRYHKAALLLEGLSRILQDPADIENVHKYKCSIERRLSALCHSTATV
Sequence of GSK3B (human) (P49841 whole entry, looked up): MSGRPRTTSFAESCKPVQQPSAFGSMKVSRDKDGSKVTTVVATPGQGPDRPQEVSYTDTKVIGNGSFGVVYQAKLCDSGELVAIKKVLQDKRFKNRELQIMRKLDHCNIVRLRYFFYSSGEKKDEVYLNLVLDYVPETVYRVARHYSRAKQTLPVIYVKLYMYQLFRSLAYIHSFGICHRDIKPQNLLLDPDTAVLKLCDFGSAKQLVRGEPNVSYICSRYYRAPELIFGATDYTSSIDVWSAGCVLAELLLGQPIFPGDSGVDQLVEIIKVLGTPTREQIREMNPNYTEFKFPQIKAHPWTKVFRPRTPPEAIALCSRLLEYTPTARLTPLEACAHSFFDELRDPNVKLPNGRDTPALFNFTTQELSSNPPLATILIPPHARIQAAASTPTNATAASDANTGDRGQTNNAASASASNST

`COc1cc(C(=O)N2CCOCC2)c(F)cc1Nc1ncc(C(F)(F)F)c(NC2CC2)n1` showed a residual activity (CSNK1G2 (human); compound 1.0 µM) of 90%, a residual activity (CSNK1G2 (human); compound 10.0 µM) of 89% and a residual activity (STK24 (human); compound 1.0 µM) of 96%. The residual activity (STK24 (human); compound 10.0 µM) was 85%, the residual activity (TTBK1 (human); compound 1.0 µM) was 96% and the residual activity (TTBK1 (human); compound 10.0 µM) was 93%. The residual activity (ULK1 (human); compound 1.0 µM) was 98%, the residual activity (ULK1 (human); compound 10.0 µM) was 56% and the residual activity (TSSK1B (human); compound 1.0 µM) was 31%. It also gave a residual activity (TSSK1B (human); compound 10.0 µM) of 7%, a residual activity (SIK3 (human); compound 1.0 µM) of 95% and a residual activity (SIK3 (human); compound 10.0 µM) of 93%. The residual activity (STK33 (human); compound 1.0 µM) was 47%, the residual activity (STK33 (human); compound 10.0 µM) was 30% and the residual activity (EIF2AK3 (human); compound 1.0 µM) was 87%. The residual activity (EIF2AK3 (human); compound 10.0 µM) was 82%, the residual activity (ULK2 (human); compound 1.0 µM) was 88% and the residual activity (ULK2 (human); compound 10.0 µM) was 70%. The residual activity (DDR2 (human); compound 1.0 µM) was 105%, the residual activity (DDR2 (human); compound 10.0 µM) was 100% and the residual activity (TTBK2 (human); compound 1.0 µM) was 91%. It also gave a residual activity (TTBK2 (human); compound 10.0 µM) of 97%, a residual activity (TEK (human); compound 1.0 µM) of 85% and a residual activity (TEK (human); compound 10.0 µM) of 91%. For the same compound, the residual activity (GSK3B (human); compound 1.0 µM) was 73%, the residual activity (GSK3B (human); compound 10.0 µM) was 43% and the residual activity (SIK2 (human); compound 1.0 µM) was 84%. It also gave a residual activity (SIK2 (human); compound 10.0 µM) of 34%, a residual activity (TLK1 (human); compound 1.0 µM) of 106% and a residual activity (TLK1 (human); compound 10.0 µM) of 96%. The residual activity (CDK9 CCNT1 (human); compound 1.0 µM) was 87%, the residual activity (CDK9 CCNT1 (human); compound 10.0 µM) was 90% and the residual activity (MAPK7 (human); compound 1.0 µM) was 66%. For the same compound, the residual activity (MAPK7 (human); compound 10.0 µM) was 42%, the residual activity ([1]; compound 1.0 µM) was 99% and the residual activity ([1]; compound 10.0 µM) was 103%. The residual activity (IRAK1 (human); compound 1.0 µM) was 98%, the residual activity (IRAK1 (human); compound 10.0 µM) was 94% and the residual activity (TESK1 (human); compound 1.0 µM) was 102%. The residual activity (TESK1 (human); compound 10.0 µM) was 118%, the residual activity (PDGFRA (human); compound 1.0 µM) was 81% and the residual activity (PDGFRA (human); compound 10.0 µM) was 76%. For the same compound, the residual activity (MAP4K3 (human); compound 1.0 µM) was 76%, the residual activity (MAP4K3 (human); compound 10.0 µM) was 36% and the residual activity (ZAP70 (human); compound 1.0 µM) was 88%. The residual activity (ZAP70 (human); compound 10.0 µM) was 86%, the residual activity ([2]; compound 1.0 µM) was 95% and the residual activity ([2]; compound 10.0 µM) was 51%. The residual activity (SRPK1 (human); compound 1.0 µM) was 84%, the residual activity (SRPK1 (human); compound 10.0 µM) was 69% and the residual activity (PTK6 (human); compound 1.0 µM) was 53%. It also gave a residual activity (PTK6 (human); compound 10.0 µM) of 22%, a residual activity ([3]; compound 1.0 µM) of 82% and a residual activity ([3]; compound 10.0 µM) of 44%. The residual activity (STK16 (human); compound 1.0 µM) was 115%, the residual activity (STK16 (human); compound 10.0 µM) was 101% and the residual activity (WNK1 (human); compound 1.0 µM) was 97%. It also gave a residual activity (WNK1 (human); compound 10.0 µM) of 106%, a residual activity (MAP4K5 (human); compound 1.0 µM) of 107% and a residual activity (MAP4K5 (human); compound 10.0 µM) of 91%. For the same compound, the residual activity (ABL1 (human); compound 1.0 µM) was 106% and the residual activity (ABL1 (human); compound 10.0 µM) was 97%.
